The values that follow come from PMC3855985, “Simultaneous Determination of Volatile Constituents from Acorus tatarinowii Schott in Rat Plasma by Gas Chromatography-Mass Spectrometry with Selective Ion Monitoring and Application in Pharmacokinetic Study” (Journal of Analytical Methods in Chemistry, 2013).

For orientation: AUC(0-inf) means total exposure, with the tail of the curve extrapolated. Read a high AUC(0-inf) as high exposure. Usually AUC(0-t) stands for the area under the concentration-time curve up to a stated or last time point. The low end stands for low exposure, the high end for high exposure. For orientation: Cmax means the peak of the concentration-time curve. The term Tmax denotes the time from dosing to the highest level. The half-life is the time in which the quantity being followed falls by half. A lower half-life goes with rapid decline.

This data set can be described thus: Pharmacokinetic study in rats after single oral dose of volatile oil of Acorus tatarinowii Schott (GC-MS/SIM of plasma). The note with it: for CL / Vd / AUC(0~t) / AUC(0~∞) / C max / T1/2 α / T 1/2β / T max: rats (n = 6); for CL / Vd / Compartment model of the plasma profile / AUC(0~t) / AUC(0~∞) / C max / T1/2 α / T 1/2β / T max: single oral dose 0.2 g/kg volatile oil of Acorus tatarinowii Schott; for Compartment model of the plasma profile: rats. The procedure: GC-MS analyses were performed with a Shimadzu GC-MS QP2010 (Kyoto, Japan). Chromatographic separation was achieved on a Restek Rxi-5MS capillary column (30 m × 0.32 mm I.D., 0.25 μm film thickness, Shimadzu, Japan) using nitrogen as carrier gas at 2 mL/min in a constant flow rate mode. […] The temperatures of injector, interface, and ion source were 250, 280, and 230°C, respectively. Detection was operated by selected ionmonitoring (SIM) mode (70 eV, electron impact mode).
In the SIM mode, the peaks of α-asarone, β-asarone, methyl eugenol, and IS in plasma were identified by matching the retention time and the abundant ions of m/z 178 for methyl eugenol, m/z 208 for α-asarone, β-asarone, and m/z 144 for IS. The injection volume was 1.0 μL. Data were collected using the GC-MS solution (Kyoto, Japan).
Six healthy male Sprague-Dawley rats, weighing 250–280 g, were supplied by the Guangdong Laboratory Animals Monitoring Institute (Guangdong, China). The rats were housed in a standard animal holding room with normal access to food and water and 12 h light cycle. The animals were fasted overnight prior to dosing, with water allowance ad libitum. All animal experiments were carried out according to the Guidelines for the Care and Use of Laboratory Animals and were approved by the Animal Experimentation Ethics Committee.
In a 1.5 mL Eppendorf tube, 100 μL of plasma was spiked with 10 μL of 2.0 μg/mL IS solution. An aliquot of 40 μL 10% (V : V) trichloracetic acid water solution and 600 μL acetonitrile was used to remove the proteins in the plasma through vortexed for 2 min followed by the centrifugation of 10 min at 8000 rpm. The supernatant was collected in a clean tube for next use, while the residue was extracted by 300 μL acetic ether for three times. The acetic ether layer and the above supernatant were collected together and evaporated to dryness under a stream of nitrogen. The residue was dissolved in 100 μL of acetone for further GC-MS analysis.
Volatile oil of Acorus tatarinowii Schott was administered orally to the rat in a single dose of 0.2 g/kg. Blood samples were collected in heparinized tube at 0, 5, 10, 20, 30, 60, 90, 120, 180, 300, 480, 720, 960, and 1200 min after dose. All the samples were extracted and analyzed under the proposed condition.
The Microsoft Excel Program Drug and Statistics 2.0 (T.C.M. Shanghai, China) was employed to process and calculate the pharmacokinetic parameters. The parameters of the area under curve (AUC), the maximum plasma concentration (C max) and the corresponding time (t max), the half-life of absorption (t 1/2), and so forth were used to decrypt the pharmacokinetic properties of α-asarone, β-asarone, and methyl eugenol. Statistical analysis of the biological data was performed by the Student's t-test. All results were expressed as arithmetic mean ± standard deviation (SD).

Where [1] appears, read: male, Sprague-Dawley, rat, plasma, po, 0.2 g/kg.

Regarding `C=CCc1ccc(OC)c(OC)c1` [Methyl Eugenol, Methyl eugenol], the “Compartment model of the plasma profile” value is given as “one-compartment open models”. Under setting [1], the AUC(0-inf) was 41.5 ng·h/mL, the area under the curve AUC(0-t) is 35.5 ng·h/mL, the maximum concentration (Cmax) was 21 ± 1 ng/mL and the Tmax is 10 min. The half-life under setting [1] stood at 67.7 ± 3.32 min. For the setting “plasma”, this molecule registered a CL of 0.40 ± 0.04 mL/min/kg and a Vd of 39.35 ± 4.08 L/kg.
`C/C=C/c1cc(OC)c(OC)cc1OC` [α-Asarone]: the “Compartment model of the plasma profile” value is “two-compartment open model”. Also, under “plasma”, the “AUC(0~t)” value stood at 47.51 ± 28.49 mg·min/L, the “AUC(0~∞)” value came to 56.67 ± 35.91 mg·min/L, the C max is 0.53 ± 0.24 µg/mL and the CL was 0.60 ± 0.44 mL/min/kg. Moreover, under “plasma”, the “T1/2 α” value was 58.92 ± 20.80 min, the “T 1/2β” value is listed as 69.28 ± 6.12 min, the T max came to 11.25 ± 6.29 min and the Vd came out at 22.93 ± 16.11 L/kg.
Regarding `C/C=C\c1cc(OC)c(OC)cc1OC` [β-Asarone, β-asarone], the “Compartment model of the plasma profile” value is recorded as “two-compartment open model”. Moreover, where the note is “plasma”, the “AUC(0~t)” value came to 368.43 ± 40.05 mg·min/L, the “AUC(0~∞)” value was 407.52 ± 55.78 mg·min/L, the C max was 2.47 ± 0.58 µg/mL and the CL stood at 0.38 ± 0.05 mL/min/kg. Under “plasma”, the “T1/2 α” value was 54.39 ± 29.46 min, the “T 1/2β” value stood at 69.30 ± 0.21 min, the T max was determined as 13.75 ± 11.09 min and the Vd was 149.87 ± 90.78 L/kg.
